According to US20040096356A1, “Assay device for determining analytes in a liquid dairy product” (priority 1997, published 2004):

Molecular target: T1, receptor BlaR-CTD (Bacillus licheniformis, UniProt P12287)
T1 construct: the receptor BlaR-CTD is the carboxy-terminal region of BlaR
Assay: 9-minute test: strip test for β-lactam antibiotics in milk using BlaR-CTD
Assay type: binding
Settings: in 9 minutes; positive when first band is less intense than second band
From the text: According to a preferred embodiment of the invention an identifier is used which comprises a receptor sensitive to antibiotics having a β-lactam ring, which receptor is obtained from Bacillus licheniformis, such as the receptor BlaR or the receptor BlaR-CTD. The isolation and the peptide sequence of the protein BlaR are described in Y. Zhu et al., J. Bacteriol., 1137-1141 (1990); the receptor BlaR-CTD is the carboxy-terminal region of BlaR, whose isolation and peptide sequence are described in B. Joris et al., FEMS Microbiology Letters, 107-114 (1990).
This example illustrates the detection in milk of antibiotics having a β-lactam ring which are monitored by the health authorities. The test described in this example uses the receptor BlaR-CTD coupled with gold beads, which serve as labelling agents, and uses a support which is in the form of an assay device comprising a solid support on which membranes are fixed.
3.79 ml of a solution of recognition agent BlaR-CTD having a concentration of 6.6 mg/ml are taken up in a sodium phosphate buffer, 20 mM pH 7. To this solution of BlaR-CTD are then added 41.71 ml of bicarbonate buffer (0.1 M sodium bicarbonate, pH 9) and 2 ml of a solution of N-hydroxysuccinimide 6-(biotinamido)caproic ester containing 2.23 mg/ml likewise of bicarbonate buffer. This solution is stirred gently on a LABINCO stirrer for tubes on a rotary axis (available from VEL, Belgium) at a rate of 2 revolutions/minute for 2 hours at ambient temperature and away from light. 2.5 ml of a solution of Tris buffer, 1 M pH 8 are incubated with the reaction mixture under the same conditions for 30 minutes. The solution thus obtained is dialysed against HNM buffer (Hepes 100 mM, pH 8, NaCl 100 mM, MgCl2 50 mM) for 24 hours. In this way a biotinylated BlaR-CTD solution is obtained which is diluted in HNM-BSA buffer (Hepes 500 mM, pH 8, NaCl 500 mM, MgCl2 250 mM, BSA 10 mg/ml) to a concentration of 250 μg of biotinylated BlaR-CTD per ml of buffer. This solution is stored at −20° C.
The biotinylated BlaR-CTD solution prepared in Example 3.1.1 is diluted 114.7 times with the HNM-BSA buffer (Hepes 500 mM, pH 8, NaCl 500 mM, MgCl2 250 mM, BSA 10 mg/ml). At room temperature, 22.5 parts by volume of this dilute biotinylated BlaR-CTD solution, 7.5 parts by volume of HNM-BSA buffer, 9.27 parts by volume of the gold particle suspension used to label the biotinylated BlaR-CTD and 6 parts by volume of reference gold particle suspension are mixed (see Example 3.1.4 below).
The first capture substance makes it possible to fix the BlaR-CTD coupled with the gold beads present in excess relative to the quantity of antibiotic present in the sample.
Assay devices containing membranes (2), (3) and (4) are used, assembled in accordance with the procedure described in Example 1.1. The membrane (3) of these devices carries on the proximal side the capture substance described in Example 32.1. and on the distal side the capture substance described in Example 3.2.2. The capture substances were deposited in accordance with the procedure described in Example 1.2.
Six samples of fresh milk are prepared, containing 0; 4; 6; 8; 10 and 12 ppb, respectively, of cephapirin. Each of these solutions is then analysed as follows.
An aliquot is taken of 200 μl of milk sample and 45.27 μl of solution prepared in Example 3.1.3, and is placed in a glass flask. This mixture is incubated at 47° C. for 7 minutes. An assay device is taken and is placed vertically in the glass flask such that the first end of the assay device is in contact with the mixture in such a way that the second end rests on the wall of the glass flask. The mixture is allowed to migrate over the assay device while the assembly is incubated at 47° C. for 2 minutes.
An intensity value ranging from 0 to 10 is awarded to the bands detected, the value 10 being given to the most intense band and the value 0 being given to the least intense band. On this scale, a value of 6 is awarded to the reference band. […]

T1 sequence (P12287 340-601): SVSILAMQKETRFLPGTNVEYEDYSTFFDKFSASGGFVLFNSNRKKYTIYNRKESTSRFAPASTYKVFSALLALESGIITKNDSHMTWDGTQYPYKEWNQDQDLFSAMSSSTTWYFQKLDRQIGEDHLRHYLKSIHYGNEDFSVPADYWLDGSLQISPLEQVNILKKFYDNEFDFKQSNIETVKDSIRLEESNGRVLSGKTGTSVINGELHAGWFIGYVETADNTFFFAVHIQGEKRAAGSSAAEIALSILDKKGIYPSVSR

`CC1(C)S[C@@H]2[C@H](NC(=O)Cc3ccccc3)C(=O)N2[C@H]1C(=O)O` [Penicillin G, penicillin G] was tested, and the “lowest concentration detected in a milk sample” value was 3 ppb.
